Measurements as given in US20240226343A1, “NEUROPEPTIDE Y1 RECEPTOR (NPY1R) TARGETED THERAPEUTICS AND USES THEREOF” (RADIONETICS ONCOLOGY, INC., priority 2022, published 2024).
pKi: −log10 of the molar value.

Each molecule was assayed against T1, hNPY1R (Homo sapiens, UniProt P25929) (assay: NPY1R binding assay: SK-N-MC membranes, [125I]-Peptide YY (human) competition). Conditions: data obtained after 60 minutes at 37° C.; SK-N-MC membranes; [125I]-Peptide YY 0.05 nM; read-out: hNPY1R binding Ki* †.
T1 construct: SK-N-MC cells endogenously expressing the NPY1R receptor; endogenous in cells; host or cells: SK-N-MC cells (crude membrane fractions)
T1 sequence (P25929 1-384): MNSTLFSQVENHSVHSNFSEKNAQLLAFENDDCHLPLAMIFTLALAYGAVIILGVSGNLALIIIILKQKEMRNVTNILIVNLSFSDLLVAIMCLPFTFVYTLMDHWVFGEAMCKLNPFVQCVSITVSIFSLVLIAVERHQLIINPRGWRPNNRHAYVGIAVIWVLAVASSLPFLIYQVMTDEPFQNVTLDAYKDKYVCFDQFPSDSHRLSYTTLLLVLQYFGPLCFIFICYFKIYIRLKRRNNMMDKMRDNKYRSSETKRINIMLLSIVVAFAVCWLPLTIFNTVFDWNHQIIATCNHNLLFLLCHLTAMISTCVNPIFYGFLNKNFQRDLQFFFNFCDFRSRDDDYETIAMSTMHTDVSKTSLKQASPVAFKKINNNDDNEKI
Description: Crude membrane fractions are prepared from SK-N-MC cells endogenously expressing the NPY1R receptor. The cells are grown to 85-100% confluence on standard tissue culture dishes in Eagle's Minimum Essential Medium supplemented with 10% dialyzed FBS. To prepare membranes, cells are scraped and collected in 1× Dulbecco's phosphate buffered saline and then pelleted at 1000 RPM's. The cell pellet is reconstituted in membrane preparation buffer (20 mM HEPES, 6 mM MgCl2 and 1 mM EGTA, protease inhibitor tablets, pH 7.4) and placed in a cell disruption vessel at 1000 PSI for 30 minutes on ice. The pressurized contents are then released and spun down at 1000 RPMs and the supernatant is collected and further centrifuged at 15,000 RPMs to pellet the membranes. The membrane pellet is resuspended in membrane preparation buffer, snap frozen and stored at −80° C. for later use.
[…] Assay contents are then filtered through unifilter GF/C microplates and washed with 9×400 μl of cold wash buffer (25 mM HEPES, 5 mM MgCl2, 1 mM CaCl2), 500 mM NaCl, 0.1% Tween-20, pH 7.4). Assay plates are read using a Top Count NXT and Ki values for compounds are determined using a GraphPad Prism 6 non-linear regression analysis.

Structure (SMILES)	pKi
CCC(=O)NCCNC(=O)/N=C(/N)NCCC[C@@H](NC(=O)C(c1ccccc1)c1cccc(OCCOCCOCCOCCOCCNC(=O)CN2CCN(CC(=O)O)CCN(CC(=O)O)CCN(CC(=O)O)CC2)c1)C(=O)NCc1ccc(O)cc1 (single isomer, unassigned) [Compound 101A]	> 8.00
CCC(=O)NCCNC(=O)/N=C(/N)NCCC[C@@H](NC(=O)C(c1ccccc1)c1cccc(OCCOCCOCCOCCOCCNC(=O)CN2CCN(CC(=O)O)CCN(CC(=O)O)CCN(CC(=O)O)CC2)c1)C(=O)NCc1ccc(O)cc1 (single isomer, unassigned) [Compound 101B]	> 8.00
CCC(=O)NCCNC(=O)/N=C(/N)NCCC[C@@H](NC(=O)C(c1ccccc1)c1ccc(NC(=O)CCOCCOCCOCCOCCNC(=O)CN2CCN(CC(=O)O)CCN(CC(=O)O)CCN(CC(=O)O)CC2)cc1)C(=O)NCc1ccc(O)cc1 (single isomer, unassigned) [Compound 102A]	7.00 to 8.00
CCC(=O)NCCNC(=O)/N=C(/N)NCCC[C@@H](NC(=O)C(c1ccccc1)c1cccc(OCCCCNC(=O)CCOCCNC(=O)CN2CCN(CC(=O)O)CCN(CC(=O)O)CCN(CC(=O)O)CC2)c1)C(=O)NCc1ccc(O)cc1 (single isomer, unassigned) [Compound 108A]	> 8.00
CCC(=O)NCCNC(=O)/N=C(/N)NCCC[C@@H](NC(=O)C(c1ccccc1)c1cccc(OCCOCCOCCNC(=O)CN2CCN(CC(=O)O)CCN(CC(=O)O)CCN(CC(=O)O)CC2)c1)C(=O)NCc1ccc(O)cc1 (stereo partly drawn) [Compound 105, 2,2′,2″-(10-(2-((2-(2-(2-(3-((4R,Z)-9-amino-4-((4-hydroxybenzyl)carbamoyl)-2,11,16-trioxo-1-phenyl-3,8,10,12,15-pentaazaoctadec-9-en-1-yl)phenoxy)ethoxy)ethoxy)ethyl)amino)-2-oxoethyl)-1,4,7,10-tetraazacyclododecane-1,4,7-triyl)triacetic acid]	> 8.00
CCC(=O)NCCNC(=O)/N=C(/N)NCCC[C@@H](NC(=O)C(c1ccccc1)c1cccc(OCCCCNC(=O)CCC(=O)N(CC(=O)O)C2CCN(C(=O)CN3CCN(CC(=O)O)CCN(CC(=O)O)CCN(CC(=O)O)CC3)CC2)c1)C(=O)NCc1ccc(O)cc1 (single isomer, unassigned) [Compound 117A]	7.00 to 8.00
CCC(=O)NCCNC(=O)/N=C(/N)NCCC[C@@H](NC(=O)C(c1ccccc1)c1ccc(NCCCNC(=O)CCOCCOCCNC(=O)CN2CCN(CC(=O)O)CCN(CC(=O)O)CCN(CC(=O)O)CC2)cc1)C(=O)NCc1ccc(O)cc1 (single isomer, unassigned) [Compound 103A]	7.00 to 8.00
CCC(=O)NCCNC(=O)/N=C(/N)NCCC[C@@H](NC(=O)C(c1ccccc1)c1cccc(OCCCCNC(=O)CCC(=O)N(CC(=O)O)C2CCN(C(=O)CN3CCN(CC(=O)O)CCN(CC(=O)O)CCN(CC(=O)O)CC3)CC2)c1)C(=O)NCc1ccc(O)cc1 (single isomer, unassigned) [Compound 117B]	> 8.00

Same assay, conditions: data obtained after 120 minutes at rt; SK-N-MC membranes; [125I]-Peptide YY; read-out: hNPY.R binding Ki* ††

Structure (SMILES)	pKi
CCC(=O)NCCNC(=O)/N=C(/N)NCCC[C@@H](NC(=O)C(c1ccccc1)c1cccc(OCCCCNC(=O)NOCCNC(=O)CN2CCN(CC(=O)O)CCN(CC(=O)O)CCN(CC(=O)O)CC2)c1)C(=O)NCc1c(F)cc(O)cc1F (single isomer, unassigned) [Compound 163B]	> 8.00
CCC(=O)NCCNC(=O)/N=C(/N)NCCC[C@@H](NC(=O)C(c1ccccc1)c1cccc(OCCCCNC(=O)CCCCCNC(=O)CN2CCN(CC(=O)O)CCN(CC(=O)O)CCN(CC(=O)O)CC2)c1)C(=O)NCc1ccc(O)cc1 (single isomer, unassigned) [Compound 140A]	> 8.00
CCC(=O)NCCNC(=O)/N=C(/N)NCCC[C@@H](NC(=O)C(c1ccccc1)c1cccc(OCCCCNC(=O)[C@@H](CCCNC(=N)N)NC(=O)CCNC(=O)CN2CCN(CC(=O)O)CCN(CC(=O)O)CCN(CC(=O)O)CC2)c1)C(=O)NCc1ccc(O)cc1 (single isomer, unassigned) [Compound 141A]	> 8.00
CCC(=O)NCCNC(=O)/N=C(/N)NCCC[C@@H](NC(=O)C(c1ccccc1)c1ccc(OCCCNc2c(NCCNC(=O)CN3CCN(CC(=O)O)CCN(CC(=O)O)CCN(CC(=O)O)CC3)c(=O)c2=O)cc1)C(=O)NCc1ccc(O)cc1 (single isomer, unassigned) [Compound 136B]	> 8.00
CCC(=O)NCCNC(=O)/N=C(/N)NCCC[C@@H](NC(=O)C(c1ccccc1)c1ccc(NCCCNC(=O)[C@H](N)CCCNC(=O)CN2CCN(CC(=O)O)CCN(CC(=O)O)CCN(CC(=O)O)CC2)cc1)C(=O)NCc1ccc(O)cc1 (single isomer, unassigned) [Compound 135B]	> 8.00
CCC(=O)NCCNC(=O)/N=C(/N)NCCC[C@@H](NC(=O)C(c1ccccc1)c1cccc(OCCCCNC(=O)CCNC(=O)CN2CCN(CC(=O)O)CCN(CC(=O)O)CCN(CC(=O)O)CC2)c1)C(=O)NCc1c(F)cc(O)cc1F (single isomer, unassigned) [Compound 162B]	> 8.00
CCC(=O)NCCNC(=O)/N=C(/N)NCCC[C@@H](NC(=O)C(c1ccccc1)c1ccc(NCCCNC(=O)[C@H](N)CCCCNC(=O)CN2CCN(CC(=O)O)CCN(CC(=O)O)CCN(CC(=O)O)CC2)cc1)C(=O)NCc1ccc(O)cc1 (single isomer, unassigned) [Compound 132B]	> 8.00
CCC(=O)NCCNC(=O)/N=C(/N)NCCC[C@@H](NC(=O)C(c1ccccc1)c1cccc(OCCCCNC(=O)[C@H](N)CCCCNC(=O)c2ccc(CNC(=O)CN3CCN(CC(=O)O)CCN(CC(=O)O)CCN(CC(=O)O)CC3)cc2)c1)C(=O)NCc1ccc(O)cc1 (single isomer, unassigned) [Compound 142A]	> 8.00
CCC(=O)NCCNC(=O)/N=C(/N)NCCC[C@@H](NC(=O)C(c1ccccc1)c1cccc(OCCCCNC(=O)CCC(=O)N(CC(=O)O)C2CCN(C(=O)CN3CCN(CC(=O)O)CCN(CC(=O)O)CCN(CC(=O)O)CC3)CC2)c1)C(=O)NCc1ccc(O)cc1 (single isomer, unassigned) [Compound 117A]	7.00 to 8.00
CCC(=O)NCCNC(=O)/N=C(/N)NCCC[C@@H](NC(=O)C(c1ccccc1)c1cccc(OCCCCNC(=O)CCC(=O)N(CC(=O)O)C2CCN(C(=O)CN3CCN(CC(=O)O)CCN(CC(=O)O)CCN(CC(=O)O)CC3)CC2)c1)C(=O)NCc1ccc(O)cc1 (single isomer, unassigned) [Compound 117B]	> 8.00
CCNC(=O)/N=C(/N)NCCC[C@@H](NC(=O)C(c1ccccc1)c1cccc(OCCCCNC(=O)[C@@H](Cc2ccc(-c3ccccc3)cc2)NC(=O)[C@@H](CN)NC(=O)CN2CCN(CC(=O)O)CCN(CC(=O)O)CCN(CC(=O)O)CC2)c1)C(=O)NCc1ccc(O)cc1 (single isomer, unassigned) [Compound 148A]	> 8.00
CCC(=O)NCCNC(=O)/N=C(/N)NCCC[C@@H](NC(=O)C(c1ccccc1)c1cccc(OCCCCNC(=O)NCCONC(=O)CN2CCN(CC(=O)O)CCN(CC(=O)O)CCN(CC(=O)O)CC2)c1)C(=O)NCc1c(F)cc(O)cc1F (single isomer, unassigned) [Compound 168]	> 8.00

More lines, now with the values ahead:

pKi	Structure (SMILES)
> 8.00	CCC(=O)NCCNC(=O)/N=C(/N)NCCC[C@@H](NC(=O)C(c1ccccc1)c1ccc(NCCCNC(=O)[C@H](N)CCC(=O)NCCN(C)CCNC(=O)CN2CCN(CC(=O)O)CCN(CC(=O)O)CCN(CC(=O)O)CC2)cc1)C(=O)NCc1ccc(O)cc1 (single isomer, unassigned) [Compound 145A]
> 8.00	CCC(=O)NCCNC(=O)/N=C(/N)NCCC[C@@H](NC(=O)C(c1ccccc1)c1ccc(NCCCNc2c(NCCNC(=O)[C@@H](CN)NC(=O)CN3CCN(CC(=O)O)CCN(CC(=O)O)CCN(CC(=O)O)CC3)c(=O)c2=O)cc1)C(=O)NCc1ccc(O)cc1 (single isomer, unassigned) [Compound 137A]
> 8.00	CCC(=O)NCCNC(=O)/N=C(/N)NCCC[C@@H](NC(=O)C(c1ccccc1)c1ccc(NCCCNc2c(NCCNC(=O)[C@@H](CN)NC(=O)CN3CCN(CC(=O)O)CCN(CC(=O)O)CCN(CC(=O)O)CC3)c(=O)c2=O)cc1)C(=O)NCc1ccc(O)cc1 (single isomer, unassigned) [Compound 137B]
> 8.00	CCC(=O)NCCNC(=O)/N=C(/N)NCCC[C@@H](NC(=O)C(c1ccccc1)c1ccc(NCCCNC(=O)[C@H](N)CCCNC(=O)CN2CCC(NC(=O)CN3CCN(CC(=O)O)CCN(CC(=O)O)CCN(CC(=O)O)CC3)CC2)cc1)C(=O)NCc1ccc(O)cc1 (single isomer, unassigned) [Compound 146B]
> 8.00	CCC(=O)NCCNC(=O)/N=C(/N)NCCC[C@@H](NC(=O)C(c1ccccc1)c1ccc(NCCCNC(=O)[C@H](N)CCC(=O)NCCN(C)CCNC(=O)CN2CCN(CC(=O)O)CCN(CC(=O)O)CCN(CC(=O)O)CC2)cc1)C(=O)NCc1ccc(O)cc1 (single isomer, unassigned) [Compound 145B]
> 8.00	CCC(=O)NCCNC(=O)/N=C(/N)NCCC[C@@H](NC(=O)C(c1ccccc1)c1cccc(OCCCCNc2c(NCCNC(=O)[C@@H](CN)NC(=O)CN3CCN(CC(=O)O)CCN(CC(=O)O)CCN(CC(=O)O)CC3)c(=O)c2=O)c1)C(=O)NCc1ccc(O)cc1 (single isomer, unassigned) [Compound 115A]
> 8.00	CCC(=O)NCCNC(=O)/N=C(/N)NCCC[C@@H](NC(=O)C(c1ccccc1)c1cccc(OCCCCNc2c(NCCNC(=O)[C@@H](CN)NC(=O)CN3CCN(CC(=O)O)CCN(CC(=O)O)CCN(CC(=O)O)CC3)c(=O)c2=O)c1)C(=O)NCc1ccc(O)cc1 (single isomer, unassigned) [Compound 115B]
